The record followed here is patent publication US8722849B2, “Polypeptides” (Novo Nordisk A/S, priority 2011, dated 2014).

For series [1], the target named is T1, human amylin receptor (amylin 3(a) receptor: human calcitonin receptor + RAMP-3) (Homo sapiens, UniProt O60896+P30988).
T1 construct: expressed in transfected cells; host or cells: BHK570
T1 sequence (P30988 25-474): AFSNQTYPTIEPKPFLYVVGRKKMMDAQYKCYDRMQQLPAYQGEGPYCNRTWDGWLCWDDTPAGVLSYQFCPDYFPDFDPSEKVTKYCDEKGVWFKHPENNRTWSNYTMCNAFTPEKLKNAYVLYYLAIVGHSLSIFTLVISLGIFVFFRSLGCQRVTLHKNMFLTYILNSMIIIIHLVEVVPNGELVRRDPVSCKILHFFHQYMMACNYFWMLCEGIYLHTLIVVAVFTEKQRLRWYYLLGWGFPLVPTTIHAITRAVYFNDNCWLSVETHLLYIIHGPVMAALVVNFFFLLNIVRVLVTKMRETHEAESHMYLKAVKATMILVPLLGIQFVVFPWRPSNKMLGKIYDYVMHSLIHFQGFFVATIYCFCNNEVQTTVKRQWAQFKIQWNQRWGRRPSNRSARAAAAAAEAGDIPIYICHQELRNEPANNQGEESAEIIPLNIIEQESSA
T1 sequence (O60896 24-148 partner): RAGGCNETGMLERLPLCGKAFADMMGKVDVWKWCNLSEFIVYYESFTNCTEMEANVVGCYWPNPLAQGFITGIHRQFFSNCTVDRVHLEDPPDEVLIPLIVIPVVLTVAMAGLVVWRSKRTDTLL
Put plainly: Assay (II)a functional CRE-luciferase assay, human amylin receptor. To be noted: Table 2; BHK amylin 3(a)-receptor/CRE-luc cells. It counts as cell-based.

Series [2] is described as follows: Assay (III) ThT fibrillation assay for physical stability. The format is physicochemical. Summed up: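 Freshly prepared formulations, pH-adjusted, with 1 μM ThT; four or eight replicates incubated at 37 °C under 960 rpm orbital shaking. Fluorescence (ex 444/em 485 nm) read every 20 min; […]. Peptide concentration measured by RP-HPLC before and after the run.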

Series [3] in a line: Assay (IV) determination of solubility. The format is physicochemical. Summed up: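 Solubility is measured across pH 3.0–8.0 by mixing a ~500 nmol/ml aqueous polypeptide stock 1:1 with 100 mM glycylglycine or bistrispropane buffers. Samples stand 18 hours at room temperature, then are centrifuged and the soluble concentration is determined by HPLC.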
In series [4] the target is T2, human calcitonin receptor (Homo sapiens, UniProt P30988).
T2 construct: expressed in transfected cells; host or cells: BHK570
T2 sequence (P30988 25-474): T1 sequence (P30988 25-474)
Put plainly: Assay (II)a functional CRE-luciferase assay, human calcitonin receptor. The format is cell-based. Conditions: Table 7; human calcitonin (CTa) receptor.

[5] abbreviates: bistrispropane buffer, pH 6, pH 6.0, read-out: Solubility pH 6.0.
The mark [6] stands for this setting: bistrispropane buffer, pH 6.5, pH 6.5, read-out: Solubility pH 6.5.
Where [7] appears, read: bistrispropane buffer, pH 7, pH 7.0, 18 hours at room temperature, Table 3, read-out: Solubility pH 7.0.
Setting [8] is: bistrispropane buffer, pH 7, pH 7.0, Table 8, read-out: Solubility pH 7.0.
[9] abbreviates: bistrispropane buffer, pH 7, pH 7.0, Table 9, read-out: Solubility pH 7.0.
Where [10] appears, read: bistrispropane buffer, pH 7, pH 7.0, read-out: Solubility pH 7.0.
Setting [11] is: bistrispropane buffer, pH 7.5, pH 7.5, Table 9, read-out: Solubility pH 7.5.
Setting [12] is: bistrispropane buffer, pH 7.5, pH 7.5, read-out: Solubility pH 7.5.
[13] abbreviates: bistrispropane buffer, pH 8, pH 8.0, read-out: Solubility pH 8.0.
Where [14] appears, read: glycylglycine buffer, pH 3, pH 3.0, read-out: Solubility pH 3.0.
The mark [15] stands for this setting: glycylglycine buffer, pH 4, pH 4.0, 18 hours at room temperature, Table 2, read-out: Solubility pH 4.0.
[16] abbreviates: glycylglycine buffer, pH 4, pH 4.0, read-out: Solubility pH 4.0.
Where [17] appears, read: glycylglycine buffer, pH 5, pH 5.0, read-out: Solubility pH 5.0.

Values after ≈ are worked out from the molar mass of the structure shown. Where two headings read alike, the source gives them in different places. Starred links: 1 amine or outer side, 2 acyl side, 3 side chain; linkers in the order of their positions; H or OH if unused. Positions of bridges follow the written chain, without caps; N, C: chain ends. Residues, ends and D or L forms follow the SMILES beside them. *: point of attachment. C20 diacid = O=C(O)CCCCCCCCCCCCCCCCCCC(=O)*; γGlu = O=C(O)[C@H](CCC(=O)[*:2])N[*:1] A value given as a limit tells only on which side of the number the result lay.

By EC50 is commonly meant the concentration giving half of the maximal effect. A word on the solubility: it is the dissolved amount per volume that the medium holds. For the compound `CC[C@H](C)[C@H](NC(=O)[C@@H]1CCCN1C(=O)CNC(=O)[C@H](Cc1ccccc1)NC(=O)[C@H](CC(N)=O)NC(=O)[C@H](CC(N)=O)NC(=O)[C@H](CO)NC(=O)[C@H](CO)NC(=O)[C@H](Cc1c[nH]cn1)NC(=O)[C@H](Cc1c[nH]cn1)NC(=O)[C@H](CC(C)C)NC(=O)[C@H](Cc1ccccc1)NC(=O)[C@H](CCC(=O)O)NC(=O)[C@H](C)NC(=O)[C@H](CC(C)C)NC(=O)[C@H](CCCNC(=N)N)NC(=O)[C@H](CCC(N)=O)NC(=O)[C@@H](NC(=O)[C@H](C)NC(=O)[C@@H]1CSSC[C@H](NC(=O)[C@H](CCCCN)NC(=O)CC[C@H](NC(=O)CCCCCCCCCCCCCCCCCCC(=O)O)C(=O)O)C(=O)N[C@@H](CC(N)=O)C(=O)N[C@@H]([C@@H](C)O)C(=O)N[C@@H](C)C(=O)N[C@@H]([C@@H](C)O)C(=O)N1)[C@@H](C)O)C(=O)N[C@@H](CC(C)C)C(=O)N1CCC[C@H]1C(=O)N1CCC[C@H]1C(=O)N[C@H](C(=O)N[C@@H](CC(N)=O)C(=O)N[C@H](C(=O)NCC(=O)N[C@@H](CO)C(=O)N[C@@H](CCC(N)=O)C(=O)N[C@H](C(=O)N1CCC[C@H]1C(N)=O)[C@@H](C)O)C(C)C)[C@@H](C)O` [Example 135, N-alpha-[(S)-4-Carboxy-4-(19-carboxynonadecanoylamino)butyryl]-[Glu14,His17,Gln35,Pro37]-pramlintide] ({C20 diacid-γGlu}-KCNTATCATQRLAEFLHHSSNNFGPILPPTNVGSQTP-NH2; disulfide 2-7 (inferred)), the EC50 in series [1] amounted to 103 pM; in series [4] it was 97 pM. Further, the “ThT pH 4.0 lag time” value in series [2] (Table 8), in series [2] (Table 9) and in series [2] (ThT fibrillation assay) was more than 45 h throughout. Moreover, the “ThT pH 4.0 lag time (h)” value in series [2] (ThT fibrillation assay) is recorded as more than 45 h. The solubility at 18 h in series [3] (setting [5]), in series [3] (setting [6]), in series [3] (setting [7]), in series [3] (setting [8]), in series [3] (setting [9]) and in series [3] (setting [10]) was more than 200 µM in each case. In addition, the solubility at 18 h in series [3] (setting [11]), in series [3] (setting [12]), in series [3] (setting [13]), in series [3] (setting [14]), in series [3] (setting [15]) and in series [3] (setting [16]) was more than 200 µM each time. For the same compound, the solubility at 18 h in series [3] (setting [17]) is more than 200 µM.

Consider `CC[C@H](C)[C@H](NC(=O)[C@@H]1CCCN1C(=O)CNC(=O)[C@H](Cc1ccccc1)NC(=O)[C@H](CC(N)=O)NC(=O)[C@H](CC(=O)O)NC(=O)[C@H](CO)NC(=O)[C@H](CO)NC(=O)[C@H](Cc1c[nH]cn1)NC(=O)[C@H](Cc1c[nH]cn1)NC(=O)[C@H](CC(C)C)NC(=O)[C@H](Cc1ccccc1)NC(=O)[C@H](CCC(=O)O)NC(=O)[C@H](C)NC(=O)[C@H](CC(C)C)NC(=O)[C@H](CCCNC(=N)N)NC(=O)[C@H](CCC(N)=O)NC(=O)[C@@H](NC(=O)[C@H](C)NC(=O)[C@@H]1CSSC[C@H](NC(=O)[C@H](CCCCN)NC(=O)CC[C@H](NC(=O)CCCCCCCCCCCCCCCCCCC(=O)O)C(=O)O)C(=O)N[C@@H](CC(N)=O)C(=O)N[C@@H]([C@@H](C)O)C(=O)N[C@@H](C)C(=O)N[C@@H]([C@@H](C)O)C(=O)N1)[C@@H](C)O)C(=O)N[C@@H](CC(C)C)C(=O)N1CCC[C@H]1C(=O)N1CCC[C@H]1C(=O)N[C@H](C(=O)N[C@@H](CC(N)=O)C(=O)N[C@H](C(=O)NCC(=O)N[C@@H](CO)C(=O)N[C@@H](Cc1c[nH]cn1)C(=O)N[C@H](C(=O)N[C@@H](Cc1ccc(O)cc1)C(N)=O)[C@@H](C)O)C(C)C)[C@@H](C)O` [Example 128, N-alpha-[(S)-4-Carboxy-4-(19-carboxynonadecanoylamino)butyryl]-[Glu14,His17,Asp21,His35]-pramlintide] ({C20 diacid-γGlu}-KCNTATCATQRLAEFLHHSSDNFGPILPPTNVGSHTY-NH2; disulfide 2-7 (inferred); C-terminus assumed), for which the results for the concentration for a half-maximal effect (EC50) in series [1] and in series [4] were 291 pM and 266 pM, respectively. In series [2] (ThT fibrillation assay), the “ThT pH 4.0 lag time” value is reported as more than 45 h. The “ThT pH 4.0 lag time (h)” value in series [2] (ThT fibrillation assay) is on record as more than 45 h. Further, the solubility at 18 h was more than 200 µM in series [3] (pH 3.0, read-out: Solubility pH 3.0); more than 200 µM in series [3] (pH 4.0, 18 hours at room temperature, Table 2, read-out: Solubility pH 4.0); more than 200 µM in series [3] (pH 4.0, read-out: Solubility pH 4.0); more than 200 µM in series [3] (pH 5.0, read-out: Solubility pH 5.0); more than 200 µM in series [3] (pH 6.0, read-out: Solubility pH 6.0); 114 µM (≈ 511 µg/mL) in series [3] (pH 6.5, read-out: Solubility pH 6.5). Besides, the solubility at 18 h was 140 µM (≈ 627 µg/mL) in series [3] (pH 7.0, 18 hours at room temperature, Table 3, read-out: Solubility pH 7.0); 140 µM (≈ 627 µg/mL) in series [3] (pH 7.0, read-out: Solubility pH 7.0); more than 200 µM in series [3] (pH 7.5, read-out: Solubility pH 7.5); more than 200 µM in series [3] (pH 8.0, read-out: Solubility pH 8.0).

With `CC[C@H](C)[C@H](NC(=O)[C@@H]1CCCN1C(=O)CNC(=O)[C@H](Cc1ccccc1)NC(=O)[C@H](CC(N)=O)NC(=O)[C@H](CCC(N)=O)NC(=O)[C@H](CO)NC(=O)[C@H](CO)NC(=O)[C@H](Cc1c[nH]cn1)NC(=O)[C@H](Cc1c[nH]cn1)NC(=O)[C@H](CC(C)C)NC(=O)[C@H](Cc1ccccc1)NC(=O)[C@H](CCC(=O)O)NC(=O)[C@H](C)NC(=O)[C@H](CC(C)C)NC(=O)[C@H](CCCNC(=N)N)NC(=O)[C@H](CCC(N)=O)NC(=O)[C@@H](NC(=O)[C@H](C)NC(=O)[C@@H]1CSSC[C@H](NC(=O)[C@H](CCCCN)NC(=O)CC[C@H](NC(=O)CCCCCCCCCCCCCCCCCCC(=O)O)C(=O)O)C(=O)N[C@@H](CC(N)=O)C(=O)N[C@@H]([C@@H](C)O)C(=O)N[C@@H](C)C(=O)N[C@@H]([C@@H](C)O)C(=O)N1)[C@@H](C)O)C(=O)N[C@@H](CC(C)C)C(=O)N1CCC[C@H]1C(=O)N1CCC[C@H]1C(=O)N[C@H](C(=O)N[C@@H](CC(N)=O)C(=O)N[C@H](C(=O)NCC(=O)N[C@@H](CO)C(=O)N[C@@H](CC(N)=O)C(=O)N[C@H](C(=O)N1CCC[C@H]1C(N)=O)[C@@H](C)O)C(C)C)[C@@H](C)O` [Example 130, N-alpha-[(S)-4-Carboxy-4-(19-carboxynonadecanoylamino)butyryl]-[Glu14,His17,Gln21,Pro37]-pramlintide] ({C20 diacid-γGlu}-KCNTATCATQRLAEFLHHSSQNFGPILPPTNVGSNTP-NH2; disulfide 2-7 (inferred)), the EC50 in series [1] was determined as 55.5 pM; in series [4] it was 31.5 pM. The “ThT pH 4.0 lag time” value in series [2] (Table 8), in series [2] (Table 9) and in series [2] (ThT fibrillation assay) was more than 45 h each time. In addition, the “ThT pH 4.0 lag time (h)” value in series [2] (ThT fibrillation assay) was more than 45 h. The solubility at 18 h in series [3] (setting [5]), in series [3] (setting [6]), in series [3] (setting [7]), in series [3] (setting [8]), in series [3] (setting [9]) and in series [3] (setting [10]) was more than 200 µM throughout. Further, the solubility at 18 h in series [3] (setting [11]), in series [3] (setting [12]), in series [3] (setting [13]), in series [3] (setting [14]), in series [3] (setting [15]) and in series [3] (setting [16]) was more than 200 µM each time. The solubility at 18 h in series [3] (setting [17]) was more than 200 µM.
